Columns and labels:
[1] = Sensory panel rating of oat/pea protein blend solution at 3% with fatty acid at 400 ppm; details: 400 ppm in oat/pea protein blend (1:14 w/w), about 3 wt% in water, no sugar; mean of eight panelists, scale 0 to 5
Description: (§1) Liquid solutions of a blend of oat and pea protein (1:14 w/w) were prepared (about 3 percent by weight in water) without sugar added. Control and test samples were prepared. To the test sample 10-undecenoic acid was added at a concentration of 400 ppm. The control and test samples were evaluated by eight sensory panelists to rate various characteristics of the control sample and the test sample on a scale from 0 to 5.

[2] = Sensory panel rating of oat/pea protein blend solution at 6% with fatty acid at 400 ppm; details: 400 ppm in oat/pea protein blend (1:28 w/w), about 6 wt% in water, no sugar; mean of eight panelists, scale 0 to 5
Description: as §1, with “(1:28” for “(1:14”, “6” for “3”

[3] = Sensory panel rating of pea protein solution at 3% with fatty acid at 700 ppm; details: 700 ppm in pea protein, 3 wt% in water, no sugar; mean of eight panelists, scale 0 to 5
Description: as §1, with “of” for “of a blend of oat and”, “protein” for “protein (1:14 w/w)”, “(3” for “(about 3”, “700” for “400”

[4] = Sensory panel rating of pea protein solution at 3% with fatty acid at 1000 ppm; details: 1000 ppm in pea protein, 3 wt% in water, no sugar; mean of eight panelists, scale 0 to 5
Description: as §1, with “of” for “of a blend of oat and”, “protein” for “protein (1:14 w/w)”, “(3” for “(about 3”, “1000” for “400”

[5] = Sensory panel rating of chickpea protein solution at 6% with fatty acid at 700 ppm; details: 700 ppm in chickpea protein, 6 wt% in water, no sugar; mean of 18 panelists, scale 0 to 5
Description: as §1, with “of xchickpea” for “of a blend of oat and pea”, “protein” for “protein (1:14 w/w)”, “prepared (6” for “prepared (about 3”, “of 700” for “of 400”, “by 18” for “by eight”

[6] = Sensory panel rating of fava bean protein solution at 6% with fatty acid at 400 ppm; details: 400 ppm in fava bean protein, 6 wt% in water, no sugar; mean of 18 panelists, scale 0 to 5
Description: as §1, with “of fava bean” for “of a blend of oat and pea”, “protein” for “protein (1:14 w/w)”, “prepared (6” for “prepared (about 3”, “by 18” for “by eight”

In the case of `C=CCCCCCCCCC(=O)O` [10-undecenoic acid, Undec-10-enoic acid], the Astringent [1] is reported as 1.8, the Bitter [1] is reported as 1.7 and the “Cereal Note” value [1] is reported as 2.5. The Creaminess [1] was 1.6, the Fattiness [1] was 1.4 and the “Green/Vegetal Note” value [1] was 2.1. For the same molecule, the Mouthcoating [1] was 2.0, the Sweet [1] was 3.6 and the Thickness [1] was 1.9. The Astringent [2] was 1.8, the Bitter [2] was 1.8 and the “Cereal Note” value [2] was 2.8. For the same molecule, the Creaminess [2] was 2.4, the Fattiness [2] was 2.3 and the “Green/Vegetal Note” value [2] was 2.3. It also gave a Mouthcoating [2] of 3.3, a Sweet [2] of 3.1 and a Thickness [2] of 2.9. For the same molecule, the Astringent [3] was 2.6, the Bitter [3] was 2.1 and the “Cereal Note” value [3] was 2.4. The Creaminess [3] was 1.8, the Fattiness [3] was 1.9 and the “Green/Vegetal Note” value [3] was 2.4. The Mouthcoating [3] was 2.3, the Sweet [3] was 3.1 and the Thickness [3] was 2.0. For the same molecule, the Astringent [4] was 2.1, the Bitter [4] was 1.7 and the “Cereal Note” value [4] was 2.7. The Creaminess [4] was 2.1, the Fattiness [4] was 2.0 and the “Green/Vegetal Note” value [4] was 2.0. It also gave a Mouthcoating [4] of 2.9, a Sweet [4] of 3.4 and a Thickness [4] of 2.1. For the same molecule, the Astringent [5] was 2.4, the Bitter [5] was 2.1 and the “Cereal Note” value [5] was 2.7. The Creaminess [5] was 2.3, the Fattiness [5] was 1.9 and the “Green/Vegetal Note” value [5] was 2.8. For the same molecule, the Mouthcoating [5] was 2.4, the Sweet [5] was 2.8 and the Thickness [5] was 1.6. For the same molecule, the Astringent [6] was 3.2, the Bitter [6] was 2.4 and the “Cereal Note” value [6] was 2.3. The Creaminess [6] was 1.2, the Fattiness [6] was 1.3 and the “Green/Vegetal Note” value [6] was 2.7. For the same molecule, the Mouthcoating [6] was 1.8, the Sweet [6] was 2.3 and the Thickness [6] was 1.2.

Reference: patent publication US20260271978A1, “USE OF FATTY ACIDS TO MODIFY FLAVOR” (Firmenich Incorporated, priority 2023, published 2026)
